Test results published in the supplement of paper PMC6470124.

Legend:
[1] = absolute recovery over vacuum-assisted evaporative concentration; higher = better recovery; conditions: enrichment method: VEC
In short: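 Standards were spiked into water samples before concentration, after concentration or not at all; volumes were 6 mL influent, 15 mL effluent and 60 mL surface or nanopure water. Spiking levels were 200 ng/L for nanopure and surface water and 1000 ng/L for wastewater, adjusted by class and compound. After evaporation at 55 °C and 20 mbar to about 0.3 mL, samples were brought to 0.4 mL, centrifuged, given internal standards and analysed by LC-HRMS/MS. Absolute recovery equals (response ratio pre − unspiked)/(post − unspiked) × 100, based on averages of ≥ 2 replicates.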

[2] = LC retention time (Atlantis T3, 5-95% MeOH gradient, 0.1% formic acid); higher = more retained / less polar
In short: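 Retention times were recorded for reference standards (purity ≥ 95%) on a polar reversed-phase C18 column (Atlantis T3, 3 × 150 mm, 3 μm) at 0.3 mL/min. Elution used water and methanol, each with 0.1% formic acid, in a gradient from 5 to 95% methanol over 17.5 min. Detection was by high-resolution tandem mass spectrometry on a QExactive Plus, with positive and negative electrospray in separate runs. Peaks were found and integrated in TraceFinder (5 ppm tolerance, at least three points per peak) and then checked by hand.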

[3] = absolute recovery over mixed-bed multilayer solid-phase extraction; higher = better recovery; conditions: enrichment method: SPE
In short: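 Wastewater (100–250 mL, adjusted to pH 6.5 and glass-fibre filtered) or 1000 mL unfiltered nanopure water was loaded on a three-layer mixed-bed cartridge and eluted with basic then acidic ethyl acetate/methanol. Standards were spiked before extraction, after it, or not at all, at 200 ng/L (water) or 1000 ng/L (wastewater), with class exceptions. Internal standards were added afterwards, then LC-HRMS/MS ran in both ionisation modes. Absolute recovery compares background-corrected response ratios of pre- versus post-spiked samples, averaged over at least two replicates.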

Structure (SMILES)	absolute recovery ([1]; wastewater effluent) [%]	absolute recovery ([1]; wastewater influent) [%]	LC retention time [2] [min]	absolute recovery ([3]; nanopure water) [%]	absolute recovery ([3]; surface water) [%]	absolute recovery ([3]; wastewater effluent) [%]	absolute recovery ([3]; wastewater influent) [%]
CCC(CO)NCC[NH2+]C(CC)CO (stereo not drawn) [Ethambutol]	102	124	3.04	75.8	64.3	66.3	66.2
CC(=O)C1CCC2C3CCC4=CC(=O)CCC4(C)C3CCC12C (stereo not drawn) [Progesteron]	93.9	6.6	21.4	92.4	97.3	94.7	95.7
C[NH2+]CCC(Oc1ccccc1C)c1ccccc1 (stereo not drawn) [Atomoxetin]	102	96.6	15.5	74.6	87	79.7	94.5
O=C1NCCN1Cc1ccc(Cl)nc1 [Imidacloprid-urea]	108	104	13.2	117	108	103	94.9
Cc1cc(C(C)(C)C)cc(C)c1CC1=[NH+]CCN1 [Xylometazolin]	102	106	15.7	87.3	84	85.4	97.2
OCC(O)C[NH+]1CCN(c2ccccc2)CC1 (stereo not drawn) [Dropropizine]	106	98.7	9.49	108	108	99.5	86.7
C[NH+](C)CCOC(C)(c1ccccc1)c1ccccn1 (stereo not drawn) [Doxylamine]	120	109	10.8	84.3	91.3	94.8	85
O=C([O-])C[N-]S(=O)(=O)C(F)(F)C(F)(F)C(F)(F)C(F)(F)C(F)(F)C(F)(F)C(F)(F)C(F)(F)F [FOSAA]	117	–	22.2	60.5	85.9	76.6	32.2
NC(=O)N1c2ccccc2C=Cc2ccccc21 [Carbamazepin]	104	98.2	17.6	99	97.8	93.5	93.2
CCCC(C)C1(CC)C(=O)N=C([S-])NC1=O (stereo not drawn) [Thiopental]	77.5	82.5	18.7	49.9	83.4	66.9	73.1
O=c1[nH]sc2ccccc12 [Benzisothiazolin-3-on (=BIT)]	86.7	22.6	14.2	79.3	76.3	72	142
CCCCCCCCn1sc(Cl)c(Cl)c1=O [4-5-Dichloro-2-n-octyl-isothiazol-3(2H)-on (=DCOIT)]	19.3	–	22.7	93	62.5	66.5	60.8
CC(C)Cc1ccc(C(C)C(=O)[O-])cc1 (stereo not drawn) [Ibuprofen]	98.5	–	21	84.5	–	118	–
OC(Cn1cncn1)(Cn1cncn1)c1ccc(F)cc1F [Fluconazol]	105	105	14.2	100	92.8	96.9	96.1
CC12C=CC(=O)C=C1CCC1C2C(=O)CC2(C)C1CCC2(O)C(=O)CO (stereo not drawn) [Prednisone]	96.6	58.2	17.3	81	78.3	76.4	87.1
CN1C(=O)CN=C(C2=CCCCC2)c2cc(Cl)ccc21 [Tetrazepam]	105	100	19.9	86.9	63.8	64.4	72.4
C[NH2+]CC(c1ccc(OC)cc1)C1(O)CCCCC1 (stereo not drawn) [N-Desvenlafaxin]	105	101	14.1	76.9	82.5	76.2	85.7
COCC(=O)N(c1c(C)cccc1C)C(C)C(=O)OC (stereo not drawn) [Metalaxyl]	103	97.8	18.4	96.6	95.8	93.6	94.7
COC(=O)c1cccc(C)c1S(=O)(=O)[N-]C(=O)Nc1nc(OCC(F)(F)F)nc(N(C)C)n1 [Triflusulfuron-methyl]	106	108	19.4	103	102	93.1	90.6
O=c1[nH+]c[n-]c2c1ncn2C1CCC(CO)O1 (stereo not drawn) [Didanosin]	84.9	–	9.79	107	85.1	83.5	102
CCC[NH+](CC)CC1COC2(CCC(C(C)(C)C)CC2)O1 (stereo not drawn) [Spiroxamin]	91.4	66.6	16.9	83	102	90.3	71.8
CCC1OC(=O)C(C)C(OC2CC(C)(OC)C(O)C(C)O2)C(C)C(OC2OC(C)CC([NH+](C)C)C2O)C(C)(O)CC(C)C[NH+](C)C(C)C(O)C1(C)O (stereo not drawn) [Azithromycin]	97.9	–	13	77.4	93.7	90.8	96.7
CC(C)CC(C)(O)C#CC(C)(O)CC(C)C (stereo not drawn) [Surfynol-104A]	75.3	70.8	20.9	86.2	–	73.8	143
Cc1ncc2n1-c1ccc(Cl)cc1C(c1ccccc1F)=NC2 [Midazolam]	102	106	14.5	87.5	90.5	89.6	83
COCC(=O)Nc1c(I)c(C(=O)NCC(O)CO)c(I)c(C(=O)N(C)CC(O)CO)c1I (stereo not drawn) [Iopromid]	108	90.1	10.1	86.3	79.5	–	65.9
COCCOCCOCCOCCOC [Tetraglyme]	103	112	13.2	80.5	83.7	83.5	99.6
